Results as given in patent US20240150356A1, “Pyrimidine amide compounds and use thereof” (ALPHALA CO., LTD., priority 2019, published 2024).
Like-named read-outs stand apart in the source and are kept apart here.

Columns and labels:
Format in all cases: cell-based
[1] = tested on: NCI-H460 (human lung cancer cell line); assay: In vitro MTS cell viability assay (NCI-60 methodology), NCI-H460; conditions: NCI-H460 cells, read-out: NCI-H460 LC50
Experimental: (§1) The cell viability measurement is based on the NCI-60 screening methodology (Nat. Rev. Cancer 6, 813-823, 2006). Briefly, cells are inoculated into 96-well plates at the optimal plating density. After 24 h, one of the two plates for Hep3B cell line is processed to determine a time zero cell viability (Tz) by MTS assay (Promega). Compounds are added over a 2-fold serial dilution to provide a total five drug concentrations plus DMSO control. Plates are incubated for a further 2 days, then measured cell viability by MTS assay [control growth (C) and test growth in the presence of drug at the five concentration levels (Ti)]. The LC50 is calculated from [(Ti−Tz)/Tz]×100=−50, which is the drug concentration resulting in a 50% reduction at the end of the drug treatment as compared to that at the beginning.
(§2) The compounds prepared in Tables 1-10 were tested in three in vitro assays, and the results are shown in Tables 1-10 for Hep3B and Table 11 for SW480 and NCI-H460 shown below. Herein, Hep3B refers to hepatocellular carcinoma cell line, SW480 refers to colon adenocarcinoma cell line, and NCI-H460 refers to human lung cancer cell line.
(§3) Shown in Tables 11 are in vitro activities of exemplary compounds of formula (I).

[2] = tested on: Hep3B cells (hepatocellular carcinoma cell line); assay: In vitro MTS cell viability assay (NCI-60 methodology), Hep3B; conditions: Homo sapiens, 48 h, 2 days drug incubation, 50% reduction vs time zero, read-out: Hep3B LC50
Outline: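 Following NCI-60 method, MTS viability of Hep3B measured 24 h after plating (time zero) and after a further 2-day exposure to five concentrations (2-fold series). LC50 defined where [(Ti−Tz)/Tz]×100 = −50.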

[3] = tested on: SW480 (colon adenocarcinoma cell line); assay: In vitro MTS cell viability assay (NCI-60 methodology), SW480; conditions: Homo sapiens, SW480 cells, read-out: SW480 LC50
Experimental: as §1, §2, §3

| Compound | CC50 [1] [nM] | CC50 [3] [nM] | LC50 ([2]; Table 6, MTS) [nM] | other results |
| --- | --- | --- | --- | --- |
| O=C(Nc1nc(-c2ccc(C(F)(F)F)cc2)nc2c1cnn2-c1ccccc1)c1ccc([N+](=O)[O-])s1 [Compound 5-39, 5-nitro-N-(1-phenyl-6-(4-(trifluoromethyl)phenyl)-1H-pyrazolo[3,4-d]pyrimidin-4-yl)thiophene-2-carboxamide] | 1250 | > 10000 |  | LC50 ([2]; Table 5, MTS): 320 nM |
| CC(C)n1ncc2c(NC(=O)c3ccc([N+](=O)[O-])s3)nc(-c3ccc(OC(F)(F)F)cc3)nc21 [Compound 1-22, N-(1-isopropyl-6-(4-(trifluoromethoxy)phenyl)-1H-pyrazolo[3,4-d]pyrimidin-4-yl)-5-nitrothiophene-2-carboxamide] | 2180 | 5380 |  | LC50 ([2]; Table 1, MTS): 730 nM |
| O=C(Nc1nc(-c2cccs2)nc2c1cnn2-c1ccccc1)c1ccc([N+](=O)[O-])s1 [Compound 5-18, 5-nitro-N-(1-phenyl-6-(thiophen-2-yl)-1H-pyrazolo[3,4-d]pyrimidin-4-yl)thiophene-2-carboxamide] | 460 | 2430 |  | LC50 ([2]; Table 5, MTS): 580 nM |
| O=C(Nc1nc(-c2ccc(F)nc2)nc2c1cnn2-c1ccc(C(F)(F)F)cc1)c1ccc([N+](=O)[O-])s1 [Compound 6-54, N-(6-(6-fluoropyridin-3-yl)-1-(4-(trifluoromethyl)phenyl)-1H-pyrazolo[3,4-d]pyrimidin-4-yl)-5-nitrothiophene-2-carboxamide] | 330 | 340 | 130 |  |
| O=C(Nc1nc(-c2ccc(Cl)cc2)nc2c1cnn2-c1ccccc1)c1ccc([N+](=O)[O-])s1 [Compound 5-30, N-(6-(4-chlorophenyl)-1-phenyl-1H-pyrazolo[3,4-d]pyrimidin-4-yl)-5-nitrothiophene-2-carboxamide] | 540 | 2690 |  | LC50 ([2]; Table 5, MTS): 350 nM |
| N#Cc1ccc(-c2nc(NC(=O)c3ccc([N+](=O)[O-])s3)c3cnn(-c4ccccc4)c3n2)cn1 [Compound 5-33, N-(6-(6-cyanopyridin-3-yl)-1-phenyl-1H-pyrazolo[3,4-d]pyrimidin-4-yl)-5-nitrothiophene-2-carboxamide] | 1800 | 600 |  | LC50 ([2]; Table 5, MTS): 300 nM |
| Cn1ncc2c(NC(=O)c3ccc([N+](=O)[O-])s3)nc(-c3ccc(OC(F)(F)F)cc3)nc21 [Compound 1-5, N-(1-methyl-6-(4-(trifluoromethoxy)phenyl)-1H-pyrazolo[3,4-1]pyrimidin-4-yl)-5-nitrothiophene-2-carboxamide] | 2850 | 4320 |  |  |
| COc1ccc(-n2ncc3c(NC(=O)c4ccc([N+](=O)[O-])s4)nc(OC4CCCCC4)nc32)cc1 [Compound 6-16, N-(6-(cyclohexyloxy)-1-(4-methoxyphenyl)-1H-pyrazolo[3,4-d]pyrimidin-4-yl)-5-nitrothiophene-2-carboxamide] |  |  | 1360 |  |
| COCCOc1ccc(-c2nc(NC(=O)c3ccc([N+](=O)[O-])s3)c3cnn(C4CCCCC4)c3n2)cc1 [Compound 10-50, N-(1-cyclohexyl-6-(4-(2-methoxyethoxy)phenyl)-1H-pyrazolo[3,4-d]pyrimidin-4-yl)-5-nitrothiophene-2-carboxamide] |  |  |  | LC50 ([2]; Table 10, MTS): 2640 nM |
| O=C(Nc1nc(-c2cccc(F)c2)nc2c1cnn2C1CCCCC1)c1ccc([N+](=O)[O-])s1 [Compound 10-12, N-(1-cyclohexyl-6-(3-fluorophenyl)-1H-pyrazolo[3,4-d]pyrimidin-4-yl)-5-nitrothiophene-2-carboxamide] |  |  |  | LC50 ([2]; Table 10, MTS): 950 nM |
| Cn1ncc2c(NC(=O)c3ccc([N+](=O)[O-])s3)nc(-c3ccc(C(F)(F)F)cc3)nc21 [Compound 1-4, N-(1-methyl-6-(4-(trifluoromethyl)phenyl)-1H-pyrazolo[3,4-d]pyrimidin-4-yl)-5-nitrothiophene-2-carboxamide] | 3560 | 6190 |  |  |
| CC1(C)CCC(n2ncc3c(NC(=O)c4ccc([N+](=O)[O-])s4)nc(-c4ccc(Cl)cc4F)nc32)CC1 [Compound 10-65, N-(6-(4-chloro-2-fluorophenyl)-1-(4,4-dimethylcyclohexyl)-1H-pyrazolo[3,4-d]pyrimidin-4-yl)-5-nitrothiophene-2-carboxamide] |  |  |  | LC50 ([2]; Table 10, MTS): 580 nM |
| CCOC(=O)c1ccc(-c2nc(NC(=O)c3ccc([N+](=O)[O-])s3)c3cnn(C4CCCCC4)c3n2)cc1 [Compound 10-33, ethyl 4-(1-cyclohexyl-4-(5-nitrothiophene-2-carboxamido)-1H-pyrazolo[3,4-d]pyrimidin-6-yl)benzoate] |  |  |  | LC50 ([2]; Table 10, MTS): 540 nM |
| CCOC(=O)N1CCC(n2ncc3c(NC(=O)c4ccc([N+](=O)[O-])s4)nc(-c4ccc(F)nc4)nc32)CC1 [Compound 9-2, ethyl 4-(6-(6-fluoropyridin-3-yl)-4-(5-nitrothiophene-2-carboxamide)-1H-pyrazolo [3,4-d]pyrimidin-1-yl)piperidine-1-carboxylate] |  |  |  | LC50 ([2]; Table 9, MTS): > 5000 nM |
| O=C(Nc1nc(-c2ccccc2F)nc2c1cnn2-c1ccc(F)cc1)c1ccc([N+](=O)[O-])s1 [Compound 6-113, N-(6-(2-fluorophenyl)-1-(4-fluorophenyl)-1H-pyrazolo[3,4-d]pyrimidin-4-yl)-5-nitrothiophene-2-carboxamide] |  |  | 400 |  |
| C=CC(=O)Nc1ccc(-n2ncc3c(NC(=O)c4ccc([N+](=O)[O-])s4)nc(-c4ccc(F)cc4)nc32)cc1 [Compound 7-19, N-(1-(4-acrylamidophenyl)-6-(4-fluorophenyl)-1H-pyrazolo[3,4-d]pyrimidin-4-yl)-5-nitrothiophene-2-carboxamide] |  |  |  | LC50 ([2]; Table 7, MTS): 190 nM |
| CC1CC=C(c2nc(NC(=O)c3ccc([N+](=O)[O-])s3)c3cnn(-c4ccc(F)cc4)c3n2)CC1 (stereo not drawn) [Compound 6-142] |  |  | 740 |  |
| COc1ccc(-n2ncc3c(NC(=O)c4ccc([N+](=O)[O-])s4)nc(-c4ccc(Cl)nc4)nc32)cc1 [Compound 6-21, N-(6-(6-chloropyridin-3-yl)-1-(4-methoxyphenyl)-1H-pyrazolo[3,4,d]pyrimidin-4-yl)-5-nitrothiophene-2-carboxamide] |  |  | 120 |  |
| O=C(Nc1nc(-c2ccc(OC(F)(F)F)cc2)nc2c1cnn2CCO)c1ccc([N+](=O)[O-])s1 [Compound 1-28, N-(1-(2-hydroxyethyl)-6-(4-(trifluoromethoxy)phenyl)-1H-pyrazolo[3,4-d]pyrimidin-4-yl)-5-nitrothiophene-2-carboxamide] |  |  |  | LC50 ([2]; Table 1, MTS): 4030 nM |
| Cc1csc2c(NC(=O)c3ccc([N+](=O)[O-])s3)nc(N3CCC(F)(F)C3)nc12 [Compound 4-11, N-(2-(3,3-difluoropyrrolidin-1-yl)-7-methylthieno[3,2-d]pyrimidin-4-yl)-5-nitrothiophene-2-carboxamide] |  |  |  | LC50 ([2]; Table 4, MTS): 3180 nM |
| O=C(Nc1nc(-c2ccc3c(c2)OCO3)nc2c1cnn2-c1ccc(F)cc1)c1ccc([N+](=O)[O-])s1 [Compound 6-124, N-(6-(benzo[d][1,3]dioxol-5-yl)-1-(4-fluorophenyl)-1H-pyrazolo[3,4-d]pyrimidin-4-yl)-5-nitrothiophene-2-carboxamide] |  |  | 550 |  |
| COCCOc1ccc(-c2nc(NC(=O)c3ccc([N+](=O)[O-])s3)c3cnn(-c4ccc(C)cc4)c3n2)cn1 [Compound 6-12, N-(6-(6-(2-methoxyethoxy)pyridin-3-yl)-1-(p-tolyl)-1H-pyrazolo[3,4-d]pyrimidin-4-yl)-5-nitrothiophene-2-carboxamide] |  |  | 260 |  |
